# Measured values published in PMC4502317, “Two helices in the third intracellular loop determine anoctamin 1 (TMEM16A) activation by calcium” (Pflugers Archiv, 2014).
# Where no end group is shown, it is not given here. The star is where a group is joined. Biotin = O=C1N[C@H]2[C@H](CS[C@H]2CCCCC(=O)*)N1
# T1: Ca2+ sensor helix peptide of ANO1 (692-NLEPFAGLTPEYMEM-706), biotinylated (mouse)
# T1 construct: Anoctamin 1 (ANO1/TMEM16A), mouse, residues 692-706, Ca2+ sensor helix of the third intracellular loop (ICL3); Held on the streptavidin chip by its N-terminal biotin; also called biotinylated Ca2+ sensor helix peptide; source: synthetic peptide
# T1 peptide: Biotin-NLEPFAGLTPEYMEM
# Columns and labels:
# [1] = Circular dichroism spectroscopy of reference helix peptides; format: physicochemical
# Experimental: To confirm whether the reference helix of ANO1 forms an α-helix, circular dichroism spectroscopy was performed with synthetic peptides spanning the reference helix regions of ANO1 (652-LFEIGIPKMKKFIRYLKL-669) and ANO2 (604-IFEIGVPKLKKLFRKLKD-621).
# [2] = test system: ANO1 659-QMQQFIAYLQ-668 mutant; experiment: Eact activation of ANO1 reference helix mutant; format: cell-based, mouse
# Experimental: (§1) Eact, a synthetic agonist of ANO1, was synthesized for the purpose of treating cystic fibrosis in an attempt to bypass dysfunctioning CFTR channel. Even though Eact was known to activate ANO1, the activation mechanism is not known. We therefore hypothesized that Eact also acts on the ICL3 region.
# (§2) All mutants were generated from the wild-type construct, mouse ANO1 (pEGFP-N1-mANO1). Amino acid substitution or deletion mutants were prepared using a site-directed mutagenesis kit (Muta-direct, iNtRON Biotech) or by using the overlap PCR method. Mutations in all mutants were confirmed by sequencing whole nucleotide sequences. […]
# (§3) Borosilicate glass pipettes (World Precision Instruments, Sarasota, FL) with tip resistances of ~2 Mohms were used to form gigaseals on HEK cells. […] Currents were recorded with a patch-clamp amplifier (Axopatch 200B, […]) with a 1-KHz filter. […]
# (§4) The control pipette solution contained 140 mM N-methyl D-glucamine, 2 mM MgCl2, and 10 mM HEPES adjusted to pH 7.2 with HCl. […] The bath solution contained (in mM) 140 N-methyl D-glucamine, 2 MgCl2, 10 HEPES, 10 chelator (EGTA, N(2-hydroxyethyl) ethylenediamine triacetic acid (HEDTA), or nitrilotriacetic acid (NTA)), and a calculated amount of CaCl2 (adjusted with HCl to pH 7.2). […] Free Ca^2+ less than 30 μM in each solution was monitored with Fura-2 fluorometry.
# ANO1 QYMQ mutant = experiment: Eact activation of ANO1 Ca^2+ sensor helix mutant; format: cell-based, mouse; conditions: data not shown
# Experimental: as §1, §2, §3, §4
# [3] = test system: ΔICL3, the deletion mutant of ANO1 in the ICL3 region; experiment: Eact activation of ΔICL3 ANO1 mutant; format: cell-based, mouse
# Experimental: as §1, §2, §3, §4
# ANO1 [4] = experiment: Eact activation of ANO1, inside-out patches; format: cell-based, mouse; conditions: 1 μM Eact to bath of inside-out patch
# Experimental: as §1, §2, §3, §4
# Δ5E ANO1 mutant = experiment: Eact activation of Δ5E ANO1 mutant, inside-out patches; format: cell-based, mouse; conditions: maximal Eact (10 μM)
# Experimental: as §1, §2, §3, §4
# [5] = test system: ANO1 285-AGAYAGA-291 mutant; experiment: Eact activation of ANO1 EF-hand-like region mutant; format: cell-based, mouse; conditions: data not shown
# Experimental: as §1, §2, §3, §4
# ANO1 [6] = experiment: Block of Ca^2+-induced ANO1 currents by helix peptides, inside-out patches; format: cell-based, mouse; conditions: 3 μM Ca^2+, E h = +80 mV
# Experimental: Fig. 4 The reference helix of the ICL3 region interacts with the Ca^2+ sensor helix in a Ca^2+-dependent way. a, b Physical interaction between the reference and Ca^2+ sensor helices was assessed with a surface plasmon resonance assay. Biotinylated Ca^2+ sensor helix peptide (692-NLEPFAGLTPEYMEM-706) was immobilized on a streptavidin-coated gold sensor chip. Resonance intensities were measured after solutions containing 0, 0.4, and 2.0 mM Ca^2+ and various concentrations of reference helix peptide (651-[…]-671) (a) or its Ala-substituted mutants (651-[…]-671) (b) were flowed through the gold chip. […] Ca^2+ (3 μM) was applied three times to inside-out patches of ANO1-transfected HEK cells. At the second Ca^2+ challenge, the peptides were also given. […] Current amplitudes were normalized to the current amplitude obtained after of the first Ca^2+ challenge. At the second Ca^2+ challenge, reference helix peptide (black circle, **p < 0.01 compared to the relative response of vehicle application, one-way ANOVA, Newman-Keuls post hoc test, n = 13), Ala-replaced reference helix peptide (black inverted triangle, n = 8), the Ca^2+ sensor helix peptide (700-TPEYMEMIIQFGF-712) (black square, **p < 0.01 compared to the relative response of vehicle application, one-way ANOVA, Newman-Keuls post hoc test, n = 7), and vehicle (white circle, n = 8) were also applied […]
# as §3, §4
# ANO1 [7] = experiment: Inhibition of Eact-activated ANO1 currents by helix peptides, inside-out patches; format: cell-based, mouse; conditions: n = 5
# Experimental: Fig. 6 Eact, a synthetic agonist of ANO1 acts on the ICL3 region. a Example traces depicting activation by Eact of WT ANO1 (upper left), 444-EEEEE-448 (Δ5E, upper right), ΔICL3 (lower left), and 659-QMQQFIAYLQ-668 mutant (lower right). b Example traces of Eact-induced ANO1 currents, which were blocked by bath application of the reference helix peptide (Ref helix peptide, 651-[…]-671, 4 μM, lower panel) but not by the Ca^2+ sensor helix peptide (CSH peptide, 700-TPEYMEMIIQFGF-712, 10 μM, middle panel). To test the effects of peptide, 1 μM Eact was applied three times. At the second Eact challenge, each peptide was also applied. c A summary of the effects of applications of helix peptides on Eact-induced ANO1 currents. Current amplitudes were normalized to the current amplitude obtained after of the first Eact challenge. Reference helix peptide (black square, n = 5), its Ala-mutant peptide (black inverted triangle, n = 5), Ca^2+ sensor helix peptide (black triangle, n = 5), or vehicle (white circle, n = 14) was applied at the second Eact challenge. *p < 0.05 compared to the relative response of vehicle application, one-way ANOVA followed by Newman-Keuls post hoc test
# We then applied the two helix peptides to see if these peptides compete with Eact in activating ANO1.
# All mutants were generated from the wild-type construct, mouse ANO1 (pEGFP-N1-mANO1). […]
# as §3, §4
# [8] = test system: biotinylated Ca^2+ sensor helix peptide of ANO1 (692-NLEPFAGLTPEYMEM-706); experiment: Surface plasmon resonance, binding to immobilized Ca^2+ sensor helix peptide; set-up: species or system mouse
# Experimental: According to the gating hypothesis, physical binding of the two helices and the interference of Ca^2+ in this interaction are key determinants for gating ANO1. To investigate this relationship, physical interaction between the two helices was measured using surface plasmon resonance. A peptide segment (692-NLEPFAGLTPEYMEM-706) spanning the Ca^2+ sensor helix of ANO1 was synthesized, biotinylated at the N-terminus, and immobilized on a streptavidin-coated gold sensor chip. Subsequently, a synthetic peptide spanning the reference helix (651-[…]-671) was passed over the immobilized Ca^2+ sensor helix.
# A Biacore 3000 was used for kinetic surface plasmon resonance measurement as previously described. Briefly, a biotinylated peptide (692-NLEPFAGLTPEYMEM-706) was immobilized on a SA chip or custom streptavidin-coated CM5 sensor chip (GE Healthcare), with one flow cell with biotin alone as a reference cell. For the binding assay, HEPES-buffered saline containing 0.005 % of Tween 20 was used as a running buffer. Various concentrations of the reference helix peptide (aa 651–671) were injected for 120 s and dissociated for 240 s at a flow rate of 20 μL/min. Binding curves were analyzed using BIAevaluation 3.1.
# [9] = biological target: T1, Ca2+ sensor helix peptide of ANO1 …; experiment: SPR; Biacore 3000; biotinylated Ca2+ sensor helix peptide immobilised on an SA chip or custom streptavidin-coated CM5 chip, reference cell with biotin alone; HEPES-buffered saline with 0.005 % Tween 20; various concentrations of reference helix peptide injected for 120 s, dissociation 240 s, 20 uL/min; solutions with 0, 0.4 and 2.0 mM Ca2+ (Ca2+ reduced the interaction dose-dependently); conditions: both partners purified
molecule,measurement,setting,value
604-IFEIGVPKLKKLFRKLKD-621,circular dichroism spectrum,[1],typical circular dichroism spectrum of an α-helix with a positive band around 192 nm and negative bands around 208 and 222 nm
COCCN(C(=O)c1cc(OC)c(OC)c(OC)c1)c1nc(-c2ccccc2)cs1 [Eact],activation by Eact,[2],failed to activate
same,activation by Eact,ANO1 QYMQ mutant,failed to activate
same,activation by Eact,[3],failed to activate
same,activation of ANO1 by Eact,ANO1 [4],activated ANO1
same,activation by Eact,Δ5E ANO1 mutant,activated the Δ5E ANO1 mutant
same,activation by Eact,[5],activated 285-AGAYAGA-291 mutant
651-NLFEIGIPKMKKFIRYLKLRR-671 [reference helix peptide],effect on Ca^2+-induced ANO1 currents,"ANO1 [6]; 4 μM peptide, p < 0.01 vs vehicle, one-way ANOVA, Newman-Keuls, n = 13",markedly blocked
same,effect on Eact-activated ANO1 currents,"ANO1 [7]; 4 μM peptide with 1 μM Eact, p < 0.05 vs vehicle, one-way ANOVA, Newman-Keuls",significantly inhibited
same,interaction with Ca^2+ sensor helix peptide,"[8]; absence of Ca^2+, Biacore 3000, HEPES-buffered saline, 0.005 % Tween 20, 20 μL/min, 120 s injection, 240 s dissociation",interacted strongly with the Ca^2+ sensor helix
651-NLFEIGIPAMAAFIAYLALAA-671 [Ala-mutant reference helix peptide],effect on Ca^2+-induced ANO1 currents,"ANO1 [6]; 4 μM Ala-mutant peptide, n = 8",failed to block
same,effect on Eact-activated ANO1 currents,ANO1 [7]; Ala-substituted peptide with 1 μM Eact,failed to inhibit
same,interaction with Ca^2+ sensor helix peptide,"[8]; regardless of Ca^2+ concentration (0, 0.4 and 2.0 mM)",failed to show any interaction
652-LFEIGIPKMKKFIRYLKL-669,circular dichroism spectrum,[1],typical circular dichroism spectrum of an α-helix with a positive band around 192 nm and negative bands around 208 and 222 nm
"700-TPEYMEMIIQFGF-712 [Ca^2+ sensor helix peptide, Ca^2+ sensor helix peptide (700-…-712)]",effect on Ca^2+-induced ANO1 currents,"ANO1 [6]; 10 μM peptide, p < 0.01 vs vehicle, one-way ANOVA, Newman-Keuls, n = 7",markedly blocked
same,effect on Eact-activated ANO1 currents,ANO1 [7]; 10 μM peptide with 1 μM Eact,failed to inhibit
NLFEIGIPKMKKFIRYLKLRR (source: synthetic peptide) [reference helix peptide of ANO1 (651-NLFEIGIPKMKKFIRYLKLRR-671)],binding result,[9],binds
